According to patent publication US20130324522A1, “INSECT ODORANT RECEPTOR ANTAGONISTS” (THE ROCKEFELLER UNIVERSITY, priority 2010, published 2013):
Like-named read-outs stand apart in the source and are kept apart here.

Experiments:
Type in all cases: cell-based
[1] = target: OR8/OR7 (Anopheles gambiae, UniProt Q7PUT5+Q7QCC7); assay: Ca2+-imaging of stable HEK293T cell line OR8/OR7; settings: for inhibition at 4 µM: HEK-293T, read-out: Percent Inhibition OR8 OR7; for IC50: Table B, read-out: IC50 OR8
OR8/OR7, sequence (Q7QCC7 whole entry): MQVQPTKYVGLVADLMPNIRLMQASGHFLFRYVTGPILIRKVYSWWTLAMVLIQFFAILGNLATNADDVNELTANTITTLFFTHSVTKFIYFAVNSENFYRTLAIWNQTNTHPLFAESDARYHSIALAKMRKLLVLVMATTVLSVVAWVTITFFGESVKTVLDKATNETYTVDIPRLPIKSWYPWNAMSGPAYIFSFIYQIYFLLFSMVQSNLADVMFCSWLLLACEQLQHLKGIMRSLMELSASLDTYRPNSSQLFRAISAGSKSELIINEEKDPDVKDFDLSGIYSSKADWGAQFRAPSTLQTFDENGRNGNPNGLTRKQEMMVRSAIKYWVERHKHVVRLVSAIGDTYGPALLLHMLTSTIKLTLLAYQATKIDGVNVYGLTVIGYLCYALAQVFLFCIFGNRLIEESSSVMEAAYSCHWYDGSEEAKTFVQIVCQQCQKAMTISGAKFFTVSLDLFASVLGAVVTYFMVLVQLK
OR8/OR7, sequence (Q7PUT5 entry or part of it): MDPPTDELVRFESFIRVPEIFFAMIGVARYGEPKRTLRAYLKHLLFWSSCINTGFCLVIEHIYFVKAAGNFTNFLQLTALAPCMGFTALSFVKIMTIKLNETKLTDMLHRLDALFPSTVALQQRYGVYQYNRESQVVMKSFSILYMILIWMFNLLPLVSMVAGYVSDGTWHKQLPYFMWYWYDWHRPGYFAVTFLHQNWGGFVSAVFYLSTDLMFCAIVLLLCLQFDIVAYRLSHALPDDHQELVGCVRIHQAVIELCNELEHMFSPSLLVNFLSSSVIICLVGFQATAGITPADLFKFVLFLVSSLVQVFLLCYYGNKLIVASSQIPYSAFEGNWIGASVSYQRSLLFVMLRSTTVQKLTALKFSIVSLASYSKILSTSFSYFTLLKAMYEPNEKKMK
Experimental: (§1) Full-length cDNAs for mosquito (Anopheles gambiae) odorant receptor (OR1, OR2, OR7, OR8, OR28), and fly (Drosophila melanogaster) odorant receptor (Or47a, Or83b), mouse TRP channel (TRPM8), and mouse serotonin receptor (5HT3) were obtained and subcloned into mammalian expression vectors. The following mammalian expression vectors were used:
(§2) Stable cell lines OR1/OR7, OR2/OR7, OR8/OR7, OR10/OR7, OR28/OR7 and TRPM8 were generated from HEK293T cells. HEK293T-based cell lines were cultured in DMEM supplemented with these additional antibiotics: 6 μg/mL blasticidin and 1 μg/mL puromycin, with the exception of the TRPM8 cell lines, which was cultured in DMEM supplemented with 1 μg/mL puromycin.
(§3) Cells were trypsinized and split into 35 mm dishes one day before transfection. Confluent cells (60-70%) in 35 mm dishes were transfected with 1 μg of insect OR(X) plasmids in pME18s-bla and 1 μg of OR7-pME18s-puro using lipofectamine 2000. For Anopheles odorant receptors, two plasmids were co-transfected into HEK cells: the ligand-specific receptor (OR1, OR2, OR8, OR28) and the corresponding olfactory co-receptor: OR7. Cell lines containing TRPM8 were transfected with single plasmid.
(§4) Stable cell lines were cultured in 10 cm dishes, and confluent cells (70-80%) were trypsinized. 10,000 cells/20 μL were transferred into each well of 384-well plates coated with poly-D-lysine, and cultured for 2 days. For Flip-In T-Rex cells (cell lines expressing Or47a/Or83b and 5HT3), 5 μL of tetracycline (5 μg/mL) were added 1 day before the assay. 20 μL of Ca-4 dye was loaded into each well for 1.5 hr at room temperature in the dark, and the dye-loaded plates were subjected to Ca^2+-imaging using a Hamamatsu FDSS6000 real time fluorescence plate reader. Odorant solutions (9× final concentration) were prepared by dissolving 1M stock solutions into Hank's Buffered Salt Solution (HBSS), and 30 μL of odor solution was transferred to each well in 384-well plates.
(§5) Compounds ([…] in DMSO) were stored in 384-well plates, and last two columns (32 wells total) contained only DMSO. 200 nL of small compounds were transferred into the odorant plates before the assay using the Perkin-Elmer Janus workstation. The odorant plates were spun down to remove air bubbles, and placed on the FDSS6000 plate loader, and 5 μL of odorant solution was applied to the cell plate on the FDSS6000. Ca^2+ increase was monitored with fluorescence at 525 nm by excitation at 485 nm.

[2] = target: OR10/OR7 (Anopheles gambiae, UniProt B5U0U7+Q7QCC7); assay: Ca2+-imaging of stable HEK293T cell line OR10/OR7; settings: for inhibition at 4 µM: HEK-293T, read-out: Percent Inhibition OR10 OR7
OR10/OR7, sequence (Q7QCC7 whole entry): as the sequence (Q7QCC7 whole entry) above
OR10/OR7, sequence (B5U0U7 entry or part of it): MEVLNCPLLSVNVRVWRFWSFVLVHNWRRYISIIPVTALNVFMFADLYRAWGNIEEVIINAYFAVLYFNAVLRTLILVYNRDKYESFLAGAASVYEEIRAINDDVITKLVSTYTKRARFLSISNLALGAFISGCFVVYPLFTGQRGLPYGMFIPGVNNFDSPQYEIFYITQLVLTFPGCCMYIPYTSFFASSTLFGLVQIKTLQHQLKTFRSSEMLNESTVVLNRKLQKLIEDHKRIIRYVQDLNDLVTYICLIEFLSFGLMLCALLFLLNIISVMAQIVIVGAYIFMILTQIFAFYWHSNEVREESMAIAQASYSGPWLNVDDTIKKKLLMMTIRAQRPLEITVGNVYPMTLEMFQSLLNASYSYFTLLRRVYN
Experimental: as §2
After one day of incubation, the transfected cells were transferred into 10 cm dishes with DMEM containing antibiotics as follows: • 0.5 μg/mL of blasticidin for OR1/OR7, OR2/OR7, OR8/OR7, OR10/OR7, OR28/OR7 • 0.2 μg/mL of puromycin for TRPM8.
as §4, §5

[3] = target: OR28/OR7 (Anopheles gambiae, UniProt A0A1S4GFY3+Q7QCC7); assay: Ca2+-imaging of stable HEK293T cell line OR28/OR7; settings: for inhibition at 4 µM: HEK-293T, read-out: Percent Inhibition OR28 OR7
OR28/OR7, sequence (A0A1S4GFY3 entry or part of it): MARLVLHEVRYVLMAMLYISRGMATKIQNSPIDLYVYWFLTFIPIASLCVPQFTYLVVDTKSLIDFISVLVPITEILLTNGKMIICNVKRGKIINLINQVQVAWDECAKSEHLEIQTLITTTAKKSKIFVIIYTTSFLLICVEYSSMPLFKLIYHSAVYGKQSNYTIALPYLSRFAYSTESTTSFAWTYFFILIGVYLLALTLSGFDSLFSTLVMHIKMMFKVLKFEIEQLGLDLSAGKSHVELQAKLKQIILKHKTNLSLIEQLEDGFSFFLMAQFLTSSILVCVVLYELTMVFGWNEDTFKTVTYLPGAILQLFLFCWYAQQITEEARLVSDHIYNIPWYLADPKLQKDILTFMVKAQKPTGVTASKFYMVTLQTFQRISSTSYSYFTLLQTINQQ
OR28/OR7, sequence (Q7QCC7 whole entry): as the sequence (Q7QCC7 whole entry) above
Experimental: as §1, §2, §3, §4, §5

[4] = target: T1, mOREG (Mus musculus, UniProt Q920P2); assay: Ca2+-imaging, control receptor mOREG; settings: read-out: Percent Inhibition mOREG
T1 sequence (Q920P2 1-313): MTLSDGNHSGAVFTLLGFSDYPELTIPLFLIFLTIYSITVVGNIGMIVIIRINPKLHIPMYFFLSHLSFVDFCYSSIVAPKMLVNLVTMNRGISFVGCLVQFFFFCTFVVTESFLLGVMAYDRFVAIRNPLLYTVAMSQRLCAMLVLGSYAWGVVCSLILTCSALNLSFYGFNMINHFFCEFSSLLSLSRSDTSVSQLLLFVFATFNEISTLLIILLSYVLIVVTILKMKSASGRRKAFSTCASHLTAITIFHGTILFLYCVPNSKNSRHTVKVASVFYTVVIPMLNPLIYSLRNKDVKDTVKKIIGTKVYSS
Experimental: as §4, with “plates. The last two columns of the plate (32 wells total) were used as control wells as follows: • negative control with HBSS buffer (16 wells) • positive control with ligands (16 wells).” for “plates.”
as §5

[5] = target: T2, TRP channel (TRPM8) (Mus musculus, UniProt Q8R4D5); assay: Ca2+-imaging of stable HEK293T cell line TRPM8; settings: HEK-293T, read-out: Percent Inhibition TRPM8
T2 construct: Full-length cDNAs for mosquito (Anopheles gambiae) odorant receptor (OR1, OR2, OR7, OR8, OR28), and fly (Drosophila melanogaster) odorant receptor (Or47a, Or83b), mouse TRP channel (TRPM8); expressed in transfected cells
T2 sequence (Q8R4D5 whole entry): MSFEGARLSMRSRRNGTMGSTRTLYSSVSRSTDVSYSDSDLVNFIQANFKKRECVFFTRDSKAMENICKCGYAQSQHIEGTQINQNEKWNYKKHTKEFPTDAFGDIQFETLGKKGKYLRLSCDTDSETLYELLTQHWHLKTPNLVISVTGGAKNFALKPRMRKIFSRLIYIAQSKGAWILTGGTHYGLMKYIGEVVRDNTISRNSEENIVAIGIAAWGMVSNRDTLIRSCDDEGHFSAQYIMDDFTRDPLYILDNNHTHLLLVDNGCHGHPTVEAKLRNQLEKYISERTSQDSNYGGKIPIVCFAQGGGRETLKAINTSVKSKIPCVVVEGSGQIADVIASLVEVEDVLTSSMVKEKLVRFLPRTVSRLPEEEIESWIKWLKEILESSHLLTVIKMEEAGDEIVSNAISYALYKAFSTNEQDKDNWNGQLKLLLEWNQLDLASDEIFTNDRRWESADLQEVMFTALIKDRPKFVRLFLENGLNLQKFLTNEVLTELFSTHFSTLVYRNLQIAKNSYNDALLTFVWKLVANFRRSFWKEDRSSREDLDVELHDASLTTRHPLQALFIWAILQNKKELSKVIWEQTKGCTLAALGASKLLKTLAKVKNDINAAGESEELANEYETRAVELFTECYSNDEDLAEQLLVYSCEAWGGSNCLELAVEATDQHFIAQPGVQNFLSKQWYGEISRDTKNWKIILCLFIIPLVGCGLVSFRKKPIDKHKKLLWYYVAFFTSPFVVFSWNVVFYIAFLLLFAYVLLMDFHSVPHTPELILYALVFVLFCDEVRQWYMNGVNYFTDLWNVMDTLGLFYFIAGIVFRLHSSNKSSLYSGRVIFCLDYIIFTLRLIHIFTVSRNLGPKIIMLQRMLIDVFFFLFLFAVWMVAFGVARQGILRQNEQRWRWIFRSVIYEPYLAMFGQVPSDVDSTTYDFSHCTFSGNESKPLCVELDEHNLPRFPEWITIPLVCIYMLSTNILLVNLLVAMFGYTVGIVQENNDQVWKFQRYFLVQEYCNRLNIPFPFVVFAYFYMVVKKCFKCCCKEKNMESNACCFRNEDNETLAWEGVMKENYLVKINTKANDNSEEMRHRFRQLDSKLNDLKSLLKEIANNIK
Experimental: as §1, §2, §3, §4, §5

Row | SMILES | inhibition at 4 µM ([1]; compound applied at 4 μM) [%] | inhibition at 4 µM ([2]; compound applied at 4 μM) [%] | inhibition at 4 µM ([3]; compound applied at 4 μM) [%] | IC50 ([3]; Table B, read-out: IC50 OR28) [nM] | inhibition at 4 µM ([4]; compound applied at 4 μM) [%] | inhibition at 4 µM ([5]; compound applied at 4 μM) [%] | inhibition at 4 µM [1] [%] | IC50 [2] [nM] | inhibition at 4 µM [2] [%] | IC50 [3] [nM] | inhibition at 4 µM [3] [%] | inhibition at 4 µM [4] [%] | inhibition at 4 µM [5] [%] | IC50 ([2]; Table B, read-out: IC50 OR10) [nM] | IC50 [1] [nM]
1 | CCN(CC)c1onc(-c2ccccc2)c1CN(CC1CCCO1)C(=O)c1ccco1 (stereo not shown) [RU-0036855] | 26 to 50 | < 25 | > 75 | < 100 | 26 to 50 | 26 to 50 | – | – | – | – | – | – | – | – | –
2 | CCOC(=O)c1c(NC(C)=O)c(-c2ccc(OC)cc2)cn1Cc1ccccc1 [RU-0077733] | < 25 | 26 to 50 | 51 to 74 | < 100 | < 25 | < 25 | – | – | – | – | – | – | – | – | –
3 | CCN(CC)C(=O)Oc1ccc2c(ccn2Cc2ccccc2Cl)c1NC(=O)CCCCC(=O)OC [RU-0075446] | – | – | – | – | – | – | < 25 | < 100 | > 75 | < 100 | > 75 | < 25 | < 25 | – | –
4 | CCNc1nc(NC(C)C)nc(N(C#N)Cc2ccccc2)n1 [RU-0015806] | < 25 | 26 to 50 | > 75 | < 100 | < 25 | 26 to 50 | – | – | – | – | – | – | – | > 1000 | –
5 | O=C(C1CCC1)N(Cc1ccco1)Cc1nccn1Cc1ccccc1Cl [RU-0048066] | < 25 | 51 to 74 | > 75 | < 100 | < 25 | < 25 | – | – | – | – | – | – | – | < 100 | –
6 | COCCN(Cc1c(-c2ccccc2)noc1N(C)C1CCCCC1)C(=O)c1ccccc1OC [RU-0037275] | 51 to 74 | < 25 | > 75 | < 100 | 26 to 50 | < 25 | – | – | – | – | – | – | – | – | > 1000
7 | Cc1ccccc1C(=O)N[C@@H]1CCCCC1NC(=O)C1CCN(C(=O)c2cc(C(F)(F)F)cc(C(F)(F)F)c2)CC1 (stereo partly shown) [RU-0045778] | < 25 | < 25 | 51 to 74 | < 100 | 26 to 50 | < 25 | – | – | – | – | – | – | – | – | –
8 | COCCN(Cc1nccn1Cc1c(F)cccc1Cl)C(=O)CCc1ccccc1 [RU-0058550] | < 25 | 26 to 50 | > 75 | < 100 | 26 to 50 | < 25 | – | – | – | – | – | – | – | – | –
9 | c1ccc(CNc2nc(NCc3ccco3)nc(N3CCOCC3)n2)cc1 [RU-0020050] | > 75 | < 25 | > 75 | 100 to 1000 | 26 to 50 | 26 to 50 | – | – | – | – | – | – | – | – | > 1000
10 | Cc1cc(C)c(Cn2ccnc2CN(C(=O)c2ccccc2F)C(C)C)c(C)c1 [RU-0048001] | 26 to 50 | > 75 | > 75 | < 100 | 26 to 50 | 26 to 50 | – | – | – | – | – | – | – | < 100 | –
11 | O=C(c1c(F)c(F)cc(F)c1F)N1CCOC(Cc2ccccc2)C1 (stereo not shown) [RU-0050393] | 26 to 50 | 51 to 74 | > 75 | < 100 | 26 to 50 | < 25 | – | – | – | – | – | – | – | > 1000 | –
